Measurements published in patent US20260327191A1, “GSK3a INHIBITORS AND METHODS OF USE THEREOF” (Blueprint Medicines Corporation, priority 2023, published 2026).
Where two headings read alike, the source gives them in different places.

How the values were obtained:
GSK3B [1] = target: T1, GSK3B (Homo sapiens, UniProt P49841); assay: NanoBRET cellular target engagement assay, Nanoluc-GSK3B in HEK293 cells; format: cell-based; design: expressed in transfected cells; conditions: NanoBRET GSK3β IC50, HEK293 cells, tracer K-8, 2 hours, 37° C
T1 sequence (P49841 whole entry): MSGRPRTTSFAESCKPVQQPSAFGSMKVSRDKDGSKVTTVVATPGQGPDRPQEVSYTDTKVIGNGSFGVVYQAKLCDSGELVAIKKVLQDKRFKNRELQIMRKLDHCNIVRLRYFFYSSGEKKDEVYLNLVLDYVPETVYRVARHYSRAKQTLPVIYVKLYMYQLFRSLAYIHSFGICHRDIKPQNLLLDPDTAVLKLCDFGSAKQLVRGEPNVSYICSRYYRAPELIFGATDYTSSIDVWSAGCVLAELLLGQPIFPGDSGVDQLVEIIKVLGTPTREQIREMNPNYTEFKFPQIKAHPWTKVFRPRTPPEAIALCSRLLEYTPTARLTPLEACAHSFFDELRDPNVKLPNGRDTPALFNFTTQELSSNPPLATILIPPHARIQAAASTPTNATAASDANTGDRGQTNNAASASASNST

human GSK3α = target: T2, human GSK3α (Homo sapiens, UniProt P49840); assay: In vitro enzymatic activity assay, GSK3α; format: biochemical; conditions: 1.0 mM ATP, 1.0 μM peptide substrate, 120 min, 25° C
T2 construct: Full length human GSK3α or GSK3B expressed as N-terminal GST fusion proteins; GST (N); purchased Carna Biosciences (Japan); host or cells: baculovirus host
T2 sequence (P49840 whole entry, the tested form may be a part): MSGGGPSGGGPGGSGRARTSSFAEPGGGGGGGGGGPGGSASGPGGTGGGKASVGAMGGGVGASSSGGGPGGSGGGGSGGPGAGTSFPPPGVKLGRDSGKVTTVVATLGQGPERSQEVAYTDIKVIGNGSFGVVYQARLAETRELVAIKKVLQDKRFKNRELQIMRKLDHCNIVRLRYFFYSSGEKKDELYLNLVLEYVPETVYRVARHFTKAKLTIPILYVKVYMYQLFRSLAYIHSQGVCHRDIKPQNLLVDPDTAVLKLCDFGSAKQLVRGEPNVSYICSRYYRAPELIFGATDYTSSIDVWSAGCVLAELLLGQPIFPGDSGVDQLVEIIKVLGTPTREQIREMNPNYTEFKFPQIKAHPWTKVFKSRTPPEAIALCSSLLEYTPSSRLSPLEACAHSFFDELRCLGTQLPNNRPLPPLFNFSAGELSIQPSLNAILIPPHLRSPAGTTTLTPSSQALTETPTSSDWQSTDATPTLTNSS

GSK3B [2] = target: T1, GSK3B; assay: In vitro enzymatic activity assay, GSK3β; format: biochemical; design: Full length human GSK3α or GSK3B expressed as N-terminal GST fusion proteins; GST (N); purchased Carna Biosciences (Japan); host or cells: baculovirus host; conditions: 1.0 mM ATP, 1.0 μM peptide substrate, 120 min, 25° C
GSK3A = target: T3, GSK3A (Homo sapiens, UniProt P49840); assay: NanoBRET cellular target engagement assay, Nanoluc-GSK3A in HEK293 cells; format: cell-based; conditions: NanoBRET GSK3α IC50, HEK293 cells, tracer K-8, 2 hours, 37° C
T3 construct: expressed in transfected cells
T3 sequence (P49840 whole entry): as the sequence (P49840 whole entry, the tested form may be a part) above

Structure (SMILES) | IC50 (GSK3B [1]) [nM] | IC50 (human GSK3α; read-out: Enzyme GSK3α (IC50)) [nM] | IC50 (GSK3B [2]; read-out: Enzyme GSK3β (IC50)) [nM] | IC50 (GSK3A) [nM] | IC50 (human GSK3α; Enzyme GSK3α (IC50)) [nM] | IC50 (GSK3B [2]; Enzyme GSK3β (IC50)) [nM]
COCc1cc(C)c(-n2cnc(N)c(C(=O)Nc3cncc([C@H]4CCCCN4)c3)c2=O)c(C)c1 [Example 98, (R)-4-amino-1-(4-(methoxymethyl)-2,6-dimethylphenyl)-6-oxo-N-(5-(piperidin-2-yl)pyridin-3-yl)-1,6-dihydropyrimidine-5-carboxamide] | 134 | 4.6 | 254 | 2.5 |  | 
CCC[C@@H](N)c1cncc(NC(=O)c2c(N)ncn(-c3c(C)cc(COC)cc3C)c2=O)c1 [Example 176, (R)-4-amino-N-(5-(1-aminobutyl)pyridin-3-yl)-1-(4-(methoxymethyl)-2,6-dimethylphenyl)-6-oxo-1,6-dihydropyrimidine-5-carboxamide] | 190 | 5.1 | 272 | 2.6 |  | 
NCc1cccc(NC(=O)c2c(N)ncn(-c3c(Cl)cccc3Cl)c2=O)c1C(F)(F)F [Example 171, 4-amino-N-(3-(aminomethyl)-2-(trifluoromethyl)phenyl)-1-(2,6-dichlorophenyl)-6-oxo-1,6-dihydropyrimidine-5-carboxamide] | 851 | 44.8 | 1280 | 30.1 |  | 
CC1CCC(c2cccc(NC(=O)c3c(N)ncn(-c4c(Cl)cccc4Cl)c3=O)c2)N1 (single isomer, unassigned) [Example 180, 4-amino-1-(2,6-dichlorophenyl)-N-(3-((2R,5R)-5-methylpyrrolidin-2-yl)phenyl)-6-oxo-1,6-dihydropyrimidine-5-carboxamide or 4-amino-1-(2,6-dichlorophenyl)-N-(3-((2S,5S)-5-methylpyrrolidin-2-yl)phenyl)-6-oxo-1,6-dihydropyrimidine-5-carboxamide] | 322 | 6.4 | 298 | 4.7 |  | 
COc1cc(C)c(-n2cnc(N)c(C(=O)Nc3cncc([C@H]4CCCCN4)c3)c2=O)c(C)c1 [Example 205, (R)-4-amino-1-(4-methoxy-2,6-dimethylphenyl)-6-oxo-N-(5-(piperidin-2-yl)pyridin-3-yl)-1,6-dihydropyrimidine-5-carboxamide] | 204 | 5 | 238 | 3.7 |  | 
Nc1ncn(-c2c(Cl)cc(OC(F)F)cc2Cl)c(=O)c1C(=O)Nc1cccc([C@@H]2CCCN2)c1 [Example 193, (S)-4-amino-1-(2,6-dichloro-4-(difluoromethoxy)phenyl)-6-oxo-N-(3-(pyrrolidin-2-yl)phenyl)-1,6-dihydropyrimidine-5-carboxamide] | 487 | 9.2 | 481 | 6.8 |  | 
CCOc1cc(Cl)c(-n2cnc(N)c(C(=O)Nc3cncc(CNCCOC)c3)c2=O)c(Cl)c1 [Example 25, 4-amino-1-(2,6-dichloro-4-ethoxyphenyl)-N-(5-(((2-methoxyethyl)amino)methyl)pyridin-3-yl)-6-oxo-1,6-dihydropyrimidine-5-carboxamide] | 715 | 13.9 | 692 | 7.5 |  | 
CCOc1cc(Cl)c(-n2cnc(N)c(C(=O)Nc3cncc(C(C)NC)c3)c2=O)c(Cl)c1 (single isomer, unassigned) [Example 24, (R)-4-amino-1-(2,6-dichloro-4-ethoxyphenyl)-N-(5-(1-(methylamino)ethyl)pyridin-3-yl)-6-oxo-1,6-dihydropyrimidine-5-carboxamide or (S)-4-amino-1-(2,6-dichloro-4-ethoxyphenyl)-N-(5-(1-(methylamino)ethyl)pyridin-3-yl)-6-oxo-1,6-dihydropyrimidine-5-carboxamide] | 147 | 4.1 | 298 | 2.8 |  | 
COC(=O)c1cc(Cl)c(-n2cnc(N)c(C(=O)Nc3cncc([C@@H]4CCCCN4)c3)c2=O)c(Cl)c1 [Example 196, methyl(S)-4-(4-amino-6-oxo-5-((5-(piperidin-2-yl)pyridin-3-yl)carbamoyl)pyrimidin-1 (6H)-yl)-3,5-dichlorobenzoate] | 242 | 6.6 | 400 | 4.2 |  | 
COc1cc(C)c(-n2cnc(N)c(C(=O)Nc3cccc(C4(N)CCC4)c3)c2=O)c(Cl)c1 [Example 38, 4-amino-N-(3-(1-aminocyclobutyl)phenyl)-1-((S)-2-chloro-4-methoxy-6-methylphenyl)-6-oxo-1,6-dihydropyrimidine-5-carboxamide] | 230 | 4.6 | 282 | 3.6 |  | 
Cc1cc(C(F)F)cc(C)c1-n1cnc(N)c(C(=O)Nc2cncc([C@H]3CCC[C@H](C)N3)c2)c1=O (single isomer, unassigned) [Example 108] | 688 | 24.6 | 998 | 8.7 |  | 
Cc1cc(C(F)CF)cc(C)c1-n1cnc(N)c(C(=O)Nc2cncc(C3CCCCCN3)c2)c1=O (single isomer, unassigned) [Example 112] | 349 | 10.5 | 493 | 5.1 |  | 
COCC[C@@H](N)c1cncc(NC(=O)c2c(N)ncn(-c3c(Cl)cccc3Cl)c2=O)c1 (single isomer, unassigned) [Example 197, (R)-4-amino-N-(5-(1-amino-3-methoxypropyl)pyridin-3-yl)-1-(2,6-dichlorophenyl)-6-oxo-1,6-dihydropyrimidine-5-carboxamide or (S)-4-amino-N-(5-(1-amino-3-methoxypropyl)pyridin-3-yl)-1-(2,6-dichlorophenyl)-6-oxo-1,6-dihydropyrimidine-5-carboxamide] | 403 | 15 | 850 | 7.2 |  | 
Nc1ncn(-c2c(O)cccc2Cl)c(=O)c1C(=O)Nc1cncc([C@@H]2CCCCN2)c1 [Example 173, (S)-4-amino-1-(2-chloro-6-hydroxyphenyl)-6-oxo-N-(5-(piperidin-2-yl)pyridin-3-yl)-1,6-dihydropyrimidine-5-carboxamide] | 25000 |  |  | 1510 | 1880 | 10000
C[C@@H](N)c1cncc(NC(=O)c2c(N)ncn(-c3c(Cl)cc(OC4CC4)cc3Cl)c2=O)c1 (single isomer, unassigned) [Example 51, (R)-4-amino-N-(5-(1-aminoethyl)pyridin-3-yl)-1-(2,6-dichloro-4-cyclopropoxyphenyl)-6-oxo-1,6-dihydropyrimidine-5-carboxamide or (S)-4-amino-N-(5-(1-aminoethyl)pyridin-3-yl)-1-(2,6-dichloro-4-cyclopropoxyphenyl)-6-oxo-1,6-dihydropyrimidine-5-carboxamide] | 124 | 2.8 | 142 | 2.2 |  | 
COc1cc(Cl)c(-n2cnc(N)c(C(=O)Nc3cncc([C@@H](N)C(F)F)c3)c2=O)c(Cl)c1 (single isomer, unassigned) [Example 204, (R)-4-amino-N-(5-(1-amino-2,2-difluoroethyl)pyridin-3-yl)-1-(2,6-dichloro-4-methoxyphenyl)-6-oxo-1,6-dihydropyrimidine-5-carboxamide or (S)-4-amino-N-(5-(1-amino-2,2-difluoroethyl)pyridin-3-yl)-1-(2,6-dichloro-4-methoxyphenyl)-6-oxo-1,6-dihydropyrimidine-5-carboxamide] | 782 | 13.5 | 706 | 8.8 |  | 
COc1cc(Cl)c(-n2cnc(N)c(C(=O)Nc3cncc(CNC(C)C)c3)c2=O)c(Cl)c1 [Example 20, 4-amino-1-(2,6-dichloro-4-methoxyphenyl)-N-(5-((isopropylamino)methyl)pyridin-3-yl)-6-oxo-1,6-dihydropyrimidine-5-carboxamide] | 396 | 14 | 685 | 7.2 |  | 
CCOc1cc(Cl)c(-n2cnc(N)c(C(=O)Nc3cncc([C@@H]4CCCCN4)c3)c2=O)c(Cl)c1 [Example 133, (S)-4-amino-1-(2,6-dichloro-4-ethoxyphenyl)-6-oxo-N-(5-(piperidin-2-yl)pyridin-3-yl)-1,6-dihydropyrimidine-5-carboxamide] | 350 | 9.7 | 508 | 6.1 |  | 
Nc1ncn(-c2c(Cl)cccc2Cl)c(=O)c1C(=O)Nc1cccc(C2CCCN2)c1F (single isomer, unassigned) [Example 168, (S)-4-amino-1-(2,6-dichlorophenyl)-N-(2-fluoro-3-(pyrrolidin-2-yl)phenyl)-6-oxo-1,6-dihydropyrimidine-5-carboxamide or (R)-4-amino-1-(2,6-dichlorophenyl)-N-(2-fluoro-3-(pyrrolidin-2-yl)phenyl)-6-oxo-1,6-dihydropyrimidine-5-carboxamide] | 1470 | 49.3 | 1530 | 27.1 |  | 
CN[C@H](C)c1cccc(NC(=O)c2c(N)ncn(-c3c(C)cccc3Cl)c2=O)c1 (atropisomer, axis not shown) [Example 3, (R)-4-amino-1-((S)-2-chloro-6-methylphenyl)-N-(3-(1-(methylamino)ethyl)phenyl)-6-oxo-1,6-dihydropyrimidine-5-carboxamide] | 395 | 6.6 | 344 | 5 |  | 
